Results: patent EP4342530A1, “SORTILIN MODULATORS” (Insusense ApS, priority 2022, dated 2024)

Legend:
h-Sortilin = target: T1, h-Sortilin (Homo sapiens, UniProt Q99523); experiment: Neurotensin scintillation proximity assay (displacement of [3H]-neurotensin binding); details: 150 nM 6his-Sortilin, 5 nM [3H]-Neurotensin; average of at least 2 determinations; read-out: IC50 [3H]Neurotensin SPA
T1 sequence (Q99523 78-831): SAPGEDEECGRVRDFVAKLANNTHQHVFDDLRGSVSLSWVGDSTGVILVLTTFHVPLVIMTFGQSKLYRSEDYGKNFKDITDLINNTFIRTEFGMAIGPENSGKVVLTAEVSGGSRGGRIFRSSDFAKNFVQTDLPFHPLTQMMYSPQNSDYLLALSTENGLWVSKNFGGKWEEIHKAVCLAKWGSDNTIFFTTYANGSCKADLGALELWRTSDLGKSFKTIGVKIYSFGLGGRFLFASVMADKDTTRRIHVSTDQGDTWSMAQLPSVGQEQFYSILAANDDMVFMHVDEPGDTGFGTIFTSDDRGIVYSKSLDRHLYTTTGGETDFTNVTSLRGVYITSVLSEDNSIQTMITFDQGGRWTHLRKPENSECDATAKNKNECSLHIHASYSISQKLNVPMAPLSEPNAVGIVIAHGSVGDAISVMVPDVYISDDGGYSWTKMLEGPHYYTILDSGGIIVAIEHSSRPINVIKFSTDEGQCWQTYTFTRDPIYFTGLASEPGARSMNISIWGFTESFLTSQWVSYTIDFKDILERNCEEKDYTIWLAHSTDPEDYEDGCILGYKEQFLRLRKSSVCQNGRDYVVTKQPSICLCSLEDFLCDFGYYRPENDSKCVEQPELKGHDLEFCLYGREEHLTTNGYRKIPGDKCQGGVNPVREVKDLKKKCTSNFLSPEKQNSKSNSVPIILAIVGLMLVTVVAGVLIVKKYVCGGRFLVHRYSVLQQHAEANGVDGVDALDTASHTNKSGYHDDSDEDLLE
Description: The exemplified compounds of the invention were tested in a Neurotensin (NTS) scintillation proximity assay (SPA). NTS, which is a 13 amino acid neuropeptide, is a sortilin ligand. The IC50 is a measure of the amount of the compound required to inhibit the binding of NTS to sortilin by 50%. The skilled person will recognise that the lower the IC50 value, the less of the compound needed to achieve the desired effect, and as a result, the chances of undesirable off-target effects are reduced.
Compound affinity was determined by measuring the displacement of [3H]-neurotensin binding to h-Sortilin in SPA format. Total volume of 40 µl in 50 mM HEPES pH 7.4 assay buffer containing 100 mM NaCl, 2.0 mM CaCl2, 0.1% BSA and 0.1% Tween-20. Compound pre-incubation for 30 minutes at room temperature with 150 nM of 6his-Sortilin before 5 nM [3H]-Neurotensin and Ni chelate imaging beads (Perkin Elmer) were added, after 6 hours the plate was read on a ViewLux with 360 s exposure time. Dose-response evaluation of compounds was performed with 8 concentrations of drugs (covering 3 decades). IC50 values were calculated by nonlinear regression using the sigmoid concentration-response (variable slope) using CDD Vault software. All values reported are average of at least 2 determinations.

Sortilin [1] = target: T2, Sortilin (Mus musculus, UniProt Q6PHU5); experiment: Creoptix (GCI) binding kinetics, mouse Sortilin; details: Species Mouse; Form of Compound Free acid; screened at 1 µM, 25 degrees Celsius
T2 construct: purchased Bio-Techne Ltd 2934-ST-050
T2 sequence (Q6PHU5 76-753 limits assumed): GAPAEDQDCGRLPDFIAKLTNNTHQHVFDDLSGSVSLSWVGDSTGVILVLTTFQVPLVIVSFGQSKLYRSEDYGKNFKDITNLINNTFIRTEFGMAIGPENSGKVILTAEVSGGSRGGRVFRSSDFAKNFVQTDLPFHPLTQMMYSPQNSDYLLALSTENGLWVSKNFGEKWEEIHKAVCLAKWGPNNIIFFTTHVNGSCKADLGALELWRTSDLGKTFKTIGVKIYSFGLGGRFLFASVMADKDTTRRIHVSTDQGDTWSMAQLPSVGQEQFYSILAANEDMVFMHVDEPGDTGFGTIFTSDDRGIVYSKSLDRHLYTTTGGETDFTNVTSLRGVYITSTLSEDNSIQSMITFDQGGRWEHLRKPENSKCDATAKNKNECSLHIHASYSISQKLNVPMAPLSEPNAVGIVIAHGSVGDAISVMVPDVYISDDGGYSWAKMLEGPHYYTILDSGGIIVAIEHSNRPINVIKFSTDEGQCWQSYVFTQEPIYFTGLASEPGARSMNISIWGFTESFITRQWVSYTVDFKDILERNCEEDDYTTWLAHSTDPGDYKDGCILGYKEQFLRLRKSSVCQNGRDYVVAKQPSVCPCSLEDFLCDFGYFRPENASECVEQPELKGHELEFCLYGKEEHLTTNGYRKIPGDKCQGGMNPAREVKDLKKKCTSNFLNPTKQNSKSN
Description: (§1) Creoptix (GCI) method - using SEQ ID NO.4 (Murine sortillin)
(§2) A protein, bound to a surface, is bathed in a solution containing potential ligands giving rise to binding kinetics to generate Kon and Koff rates, as well as a Kd.
(§3) All buffers described were filtered using a 0.2µm filter (Product number: 10300461, Nalgene) and degassed for 15 minutes prior to use.
(§4) A flow cell temperature of 25 degrees Celsius was used throughout the experiment.
(§5) A 4PCH chip was conditioned across all flow cells using 0.2 X concentration running buffer (running buffer composition: 1XHBS-N, pH 7.4, 3.4 mM EDTA, 1% DMSO) using pre-set conditioning wizard (WAVE control software) injecting: 0.1 M borate, 1 M NaCl (pH 9) followed by three start-up injections of 0.2 X running buffer.
(§6) A buffer exchange was performed and 1x running buffer (1XHBS-N, pH 7.4, 3.4 mM EDTA, 1% DMSO) used during the immobilisation procedure: An initial injection of EDC/NHS (mixed in 1:1 ratio) was performed across all 4-flow cells to activate the surface for amine coupling of ligands.
(§7) Recombinant Sortilin aliquots were thawed quickly by hand and centrifuged at 13,300 rpm for 10 minutes. A 10 µg/ml protein solution was then made in pH 5.0 acetate and injected once for 20 minutes over flow-cells 2, 3 and 4 for human, human (flow cells 2 & 3), and mouse Sortilin respectively followed by a 60 second dissociation period.
(§8) A final 7-minute passivation injection of 50 mM tris was used across all flow cells.
(§9) A flow rate of 10 µl/min was used for all conditioning and immobilisation cycles.
(§10) Compounds were screened at 1 µM using the in-built 'intermediate binders' settings: 100 ul/min, 45 s baseline, 25 s association, 300 s dissociation, with blanks every 5th sample and a DMSO correction (1.5 % DMSO at the start and end of the experiment as well as every 20 cycles. An acquisition rate of 10 Hz was used throughout the experiment.
(§11) Compounds were screened at a final assay concentration of 1 µM and a final DMSO concentration was 1 %. To achieve this, compounds were diluted in DMSO from 10 mM stocks to 100 µM (100 x final assay concentration) then diluted 1:100 in running buffer which contained no DMSO to establish a final assay concentration of compound of 1 µM and a final DMSO concentration of 1 % [DMSO].
(§12) Compounds and DMSO were mixed by plate shaking at 1000 rpm for 60 seconds using a Bioshake instrument.
(§13) A flow rate of 100 µl/min was used throughout the experiment.
(§14) Data was evaluated using the RAPID kinetic analysis tool in the GCI WAVE_control software with data fitted using a standard 1:1 kinetic BioModel.

Sortilin [2] = target: T3, Sortilin (Homo sapiens, UniProt Q99523); experiment: Creoptix (GCI) binding kinetics, human Sortilin; details: Species Human, screened at 1 µM, 25 degrees Celsius
T3 construct: purchased Bio-Techne Ltd 3154-ST-050
T3 sequence (Q99523 78-755 limits assumed): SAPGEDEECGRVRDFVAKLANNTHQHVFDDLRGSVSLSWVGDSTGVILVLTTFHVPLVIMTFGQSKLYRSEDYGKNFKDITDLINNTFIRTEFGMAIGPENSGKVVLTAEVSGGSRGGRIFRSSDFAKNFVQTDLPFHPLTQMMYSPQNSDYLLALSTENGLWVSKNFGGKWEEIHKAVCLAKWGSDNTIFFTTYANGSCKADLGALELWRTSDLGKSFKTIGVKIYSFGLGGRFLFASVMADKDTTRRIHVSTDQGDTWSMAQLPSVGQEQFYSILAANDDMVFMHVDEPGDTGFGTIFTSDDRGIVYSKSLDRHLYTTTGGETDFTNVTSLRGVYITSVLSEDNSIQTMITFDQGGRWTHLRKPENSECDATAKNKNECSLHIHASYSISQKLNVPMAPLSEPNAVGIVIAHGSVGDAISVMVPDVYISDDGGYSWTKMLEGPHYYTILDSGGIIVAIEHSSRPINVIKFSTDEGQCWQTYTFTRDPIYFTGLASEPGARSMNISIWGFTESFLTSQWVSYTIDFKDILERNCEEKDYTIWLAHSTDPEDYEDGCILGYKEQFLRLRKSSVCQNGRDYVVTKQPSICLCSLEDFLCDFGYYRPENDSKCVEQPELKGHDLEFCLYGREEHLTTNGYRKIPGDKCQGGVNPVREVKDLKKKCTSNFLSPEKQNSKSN
Description: as §1, §2, §3, §4, §5, §6, §7, §8, §9, §10, §11, §12, §13, §14

C[C@@H](N[C@@H](CCC(C)(C)C)C(=O)O)c1ccc2c(c1)NCCC2 [Example 58]
IC50 (h-Sortilin): 0.31 µM
Kd (Sortilin [1]): 0.0703 µM
Kd (Sortilin [2]; Form of Compound Free acid): 0.067 µM

CN1CCOc2cc(CN[C@@H](CCC(C)(C)C)C(=O)O)ccc21 [Example 19, (S)-5,5-dimethyl-2-(((4-methyl-3,4-dihydro-2H-benzo[b][1,4]oxazin-7-yl)methyl)amino)hexanoic acid]
IC50 (h-Sortilin): 0.66 µM
Kd (Sortilin [1]): 3.18 µM
Kd (Sortilin [2]; Form of Compound Free acid): 3.72 µM

CC(C)(C)CC[C@H](NCc1ccc2c(c1)CNCC2)C(=O)O [Example 18, (2S)-5,5-dimethyl-2-{[(1,2,3,4-tetrahydroisoquinolin-7-yl)methyl]amino}hexanoic acid]
IC50 (h-Sortilin): 0.5 µM
Kd (Sortilin [1]): 2.28 µM
Kd (Sortilin [2]; Form of Compound Free acid): 1.42 µM

CC(C)(C)CC[C@H](NCc1ccc2c(c1)CCCN2)C(=O)O [Example 16, (2S)-5,5-dimethyl-2-{[(1,2,3,4-tetrahydroquinolin-6-yl)methyl]amino}hexanoic acid]
IC50 (h-Sortilin): 0.57 µM
Kd (Sortilin [1]): 0.299 µM
Kd (Sortilin [2]; Form of Compound Free acid): 0.255 µM

CN1CCc2cc(CN[C@@H](CCC(C)(C)C)C(=O)O)ccc2C1 [Example 10, (S)-5,5-dimethyl-2-(((2-methyl-1,2,3,4-tetrahydroisoquinolin-6-yl)methyl)amino)hexanoic acid]
IC50 (h-Sortilin): 0.64 µM
Kd (Sortilin [1]): 0.241 µM
Kd (Sortilin [2]; Form of Compound Free acid): 0.2 µM

CN1C(=O)CCc2ccc(CN[C@@H](CCC(C)(C)C)C(=O)O)cc21 [Example 28, (2S)-5,5-dimethyl-2-{[(1-methyl-2-oxo-1,2,3,4-tetrahydroquinolin-7-yl)methyl]amino}hexanoic acid]
IC50 (h-Sortilin): 0.22 µM
Kd (Sortilin [2]; Form of Compound Free acid): 0.317 µM

CC(C)(C)CC[C@H](NCc1ccc2c(c1)OCO2)C(=O)O [Example 68]
IC50 (h-Sortilin): 0.86 µM
Kd (Sortilin [2]; Form of Compound Free acid): 0.163 µM

CC(C)(C)CC[C@H](NCc1ccnc(Oc2ccccc2)c1)C(=O)O [Example 76]
IC50 (h-Sortilin): 0.23 µM
Kd (Sortilin [2]; Form of Compound Free acid): 0.0583 µM

C[C@@H](N[C@@H](CCC(C)(C)C)C(=O)O)c1ccc2c(c1)CCCC2 [Example 11, (S)-5,5-dimethyl-2-(((R)-1-(5,6,7,8-tetrahydronaphthalen-2-yl)ethyl)amino)hexanoic acid]
IC50 (h-Sortilin): 0.12 µM
Kd (Sortilin [2]; Form of Compound Free acid): 0.0366 µM
Kd (Sortilin [2]; Form of Compound Mesylate salt): 0.0407 µM

CC(C)(C)CC[C@H](NCc1ccc(Oc2ccccc2)nc1)C(=O)O [Example 38, (2S)-5,5-dimethyl-2-{[(6-phenoxypyridin-3-yl)methyl]amino}hexanoic acid]
IC50 (h-Sortilin): 0.34 µM
Kd (Sortilin [2]; Form of Compound Mesylate salt): 0.0491 µM

CC(C)(C)CC[C@H](N[C@H](c1ccc2c(c1)OCCC2)C(F)F)C(=O)O [Example 56]
IC50 (h-Sortilin): 0.31 µM
Kd (Sortilin [2]; Form of Compound Free acid): 0.696 µM

CC(C)(C)CC[C@H](N[C@@H](c1ccc2c(c1)CCCC2)C(F)(F)F)C(=O)O [Example 47]
IC50 (h-Sortilin): 0.16 µM
Kd (Sortilin [2]; Form of Compound Free acid): 0.0753 µM

(2S)-5,5-dimethyl-2-{[(5,6,7,8-tetrahydronaphthalen-2-yl)methyl]amino}hexanoic acid [Example 4]
IC50 (h-Sortilin): 0.12 µM
Kd (Sortilin [2]; Form of Compound Free acid): 0.0409 µM
Kd (Sortilin [2]; Form of Compound HCl salt): 0.0517 µM
Kd (Sortilin [2]; Form of Compound Mesylate salt): 0.0425 µM

CC(C)(C)CC[C@H](N[C@@H](c1ccc2c(c1)OCCC2)C(F)F)C(=O)O [Example 46]
IC50 (h-Sortilin): 0.13 µM
Kd (Sortilin [2]; Form of Compound Free acid): 0.0434 µM

C[C@@H](N[C@@H](CCC(C)(C)C)C(=O)O)c1ccc(Oc2ccccc2)nc1 [Example 43]
IC50 (h-Sortilin): 0.41 µM
Kd (Sortilin [2]; Form of Compound Free acid): 0.0683 µM

CC(C)(C)CC[C@H](NCc1ccc2c(c1)NCCC2)C(=O)O [Example 17, (2S)-5,5-dimethyl-2-{[(1,2,3,4-tetrahydroquinolin-7-yl)methyl]amino}hexanoic acid]
IC50 (h-Sortilin): 0.19 µM
Kd (Sortilin [2]; Form of Compound Free acid): 0.0973 µM

Cn1c(=O)oc2cc(CN[C@@H](CCC(C)(C)C)C(=O)O)ccc21 [Example 22, (2S)-5,5-dimethyl-2-{[(3-methyl-2-oxo-2,3-dihydro-1,3-benzoxazol-6-yl)methyl]amino}hexanoic acid]
IC50 (h-Sortilin): 0.47 µM
Kd (Sortilin [2]; Form of Compound Free acid): 0.35 µM

CC(C)(C)CC[C@H](N[C@H](c1ccc2c(c1)CCCC2)C(F)F)C(=O)O [Example 71]
IC50 (h-Sortilin): 0.59 µM
Kd (Sortilin [2]; Form of Compound Free acid): 0.193 µM
